Test results as given in ChEMBL document CHEMBL1201862, “PubChem BioAssay data set” (2004).
Activity calls are given as the source filed them.

Legend:
[1] = target: T1, DNA repair and recombination protein RAD54-like (Homo sapiens, UniProt Q92698); test: RAD54 Holliday junction migration blockers – biochemical, fluorescence, cherry-picked samples, dose series, confirmation (AID 651657); assay type: functional
T1 sequence (Q92698 whole entry): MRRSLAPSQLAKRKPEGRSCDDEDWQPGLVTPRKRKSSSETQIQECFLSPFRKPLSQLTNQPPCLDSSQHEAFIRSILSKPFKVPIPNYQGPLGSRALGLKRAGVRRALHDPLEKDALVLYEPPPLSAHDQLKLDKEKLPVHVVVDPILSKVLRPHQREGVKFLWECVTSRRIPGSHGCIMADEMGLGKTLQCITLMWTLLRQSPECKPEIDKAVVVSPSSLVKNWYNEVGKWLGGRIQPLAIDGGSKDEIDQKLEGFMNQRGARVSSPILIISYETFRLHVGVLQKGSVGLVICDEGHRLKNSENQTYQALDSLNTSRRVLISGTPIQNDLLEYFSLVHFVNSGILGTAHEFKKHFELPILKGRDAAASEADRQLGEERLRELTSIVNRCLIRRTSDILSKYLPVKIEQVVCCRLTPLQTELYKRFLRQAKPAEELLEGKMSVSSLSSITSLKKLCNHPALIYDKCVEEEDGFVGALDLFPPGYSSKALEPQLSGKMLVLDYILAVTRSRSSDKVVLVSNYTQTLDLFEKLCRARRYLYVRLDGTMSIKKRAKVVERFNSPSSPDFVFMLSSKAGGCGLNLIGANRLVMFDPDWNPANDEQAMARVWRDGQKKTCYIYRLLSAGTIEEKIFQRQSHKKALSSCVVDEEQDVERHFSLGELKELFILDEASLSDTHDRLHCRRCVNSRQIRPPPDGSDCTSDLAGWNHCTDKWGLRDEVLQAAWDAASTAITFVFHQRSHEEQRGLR

[2] = target: T2, Trace amine-associated receptor 1 (Homo sapiens, UniProt Q96RJ0); test: Fluorescence-based cell-based high throughput dose response assay to identify agonists of the human trace amine associated receptor 1 (TAAR1).; assay type: functional
T2 sequence (Q96RJ0 whole entry): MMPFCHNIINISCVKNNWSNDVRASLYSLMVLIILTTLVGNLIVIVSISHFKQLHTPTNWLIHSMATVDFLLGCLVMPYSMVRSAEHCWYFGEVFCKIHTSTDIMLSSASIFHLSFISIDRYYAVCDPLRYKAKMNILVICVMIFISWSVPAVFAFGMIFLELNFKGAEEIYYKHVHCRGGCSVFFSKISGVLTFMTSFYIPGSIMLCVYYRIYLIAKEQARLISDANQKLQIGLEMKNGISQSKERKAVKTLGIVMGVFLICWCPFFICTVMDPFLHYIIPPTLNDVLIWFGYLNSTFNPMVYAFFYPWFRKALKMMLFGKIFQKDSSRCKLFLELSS

[3] = target: T2, Trace amine-associated receptor 1; test: Counterscreen for agonists of the human trace amine associated receptor 1 (hTAAR1): Fluorescence-based cell-based high throughput dose response assay to identify hTAAR1 agonist that also desensitize TAAR1 receptor response.; assay type: functional
[4] = cells; assay type: functional, cell-based
[5] = cells; assay type: functional, cell-based; remark: listed apart in the source
[6] = tested on: Streptococcus sp. 'group A'; test: Streptococcus pyogenes SK(-)GAS viability under kanamycin – luminescence, BacTiterGlo, confirmation, counter-screen for streptokinase expression inhibitor project, dose response (AID 1900); assay type: functional, organism-based
[7] = target: T3, Streptokinase A (Streptococcus pyogenes serotype M1, UniProt P10520); test: viability-normalized secreted streptokinase activity reduction – plasminogen activation absorbance, OD405, dose response (AID 1914); assay type: functional, Streptococcus pyogenes M1 GAS;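 note: secreted streptokinase activity via plasminogen activation per viability signal from cell pellet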
T3 sequence (P10520 whole entry): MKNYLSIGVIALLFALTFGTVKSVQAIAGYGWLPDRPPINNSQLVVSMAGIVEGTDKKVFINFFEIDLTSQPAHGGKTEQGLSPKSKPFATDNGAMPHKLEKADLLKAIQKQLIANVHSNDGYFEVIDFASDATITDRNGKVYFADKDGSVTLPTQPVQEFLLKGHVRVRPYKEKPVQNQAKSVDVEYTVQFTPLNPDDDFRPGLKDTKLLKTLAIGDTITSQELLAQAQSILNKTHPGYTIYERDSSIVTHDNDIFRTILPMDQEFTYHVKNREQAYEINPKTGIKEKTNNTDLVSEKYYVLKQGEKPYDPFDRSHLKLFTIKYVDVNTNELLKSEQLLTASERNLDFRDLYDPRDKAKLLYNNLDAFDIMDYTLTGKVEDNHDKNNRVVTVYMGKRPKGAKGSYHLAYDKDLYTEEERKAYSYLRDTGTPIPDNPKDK

[8] = target: DNA (cytosine-5)-methyltransferase 1 (Homo sapiens, UniProt P26358); test: inhibition of DNA methylation by DNMT1 – biochemical, fluorescent molecular beacon, confirmation (AID 602386); assay type: functional
DNA (cytosine-5)-methyltransferase 1, sequence (P26358 whole entry): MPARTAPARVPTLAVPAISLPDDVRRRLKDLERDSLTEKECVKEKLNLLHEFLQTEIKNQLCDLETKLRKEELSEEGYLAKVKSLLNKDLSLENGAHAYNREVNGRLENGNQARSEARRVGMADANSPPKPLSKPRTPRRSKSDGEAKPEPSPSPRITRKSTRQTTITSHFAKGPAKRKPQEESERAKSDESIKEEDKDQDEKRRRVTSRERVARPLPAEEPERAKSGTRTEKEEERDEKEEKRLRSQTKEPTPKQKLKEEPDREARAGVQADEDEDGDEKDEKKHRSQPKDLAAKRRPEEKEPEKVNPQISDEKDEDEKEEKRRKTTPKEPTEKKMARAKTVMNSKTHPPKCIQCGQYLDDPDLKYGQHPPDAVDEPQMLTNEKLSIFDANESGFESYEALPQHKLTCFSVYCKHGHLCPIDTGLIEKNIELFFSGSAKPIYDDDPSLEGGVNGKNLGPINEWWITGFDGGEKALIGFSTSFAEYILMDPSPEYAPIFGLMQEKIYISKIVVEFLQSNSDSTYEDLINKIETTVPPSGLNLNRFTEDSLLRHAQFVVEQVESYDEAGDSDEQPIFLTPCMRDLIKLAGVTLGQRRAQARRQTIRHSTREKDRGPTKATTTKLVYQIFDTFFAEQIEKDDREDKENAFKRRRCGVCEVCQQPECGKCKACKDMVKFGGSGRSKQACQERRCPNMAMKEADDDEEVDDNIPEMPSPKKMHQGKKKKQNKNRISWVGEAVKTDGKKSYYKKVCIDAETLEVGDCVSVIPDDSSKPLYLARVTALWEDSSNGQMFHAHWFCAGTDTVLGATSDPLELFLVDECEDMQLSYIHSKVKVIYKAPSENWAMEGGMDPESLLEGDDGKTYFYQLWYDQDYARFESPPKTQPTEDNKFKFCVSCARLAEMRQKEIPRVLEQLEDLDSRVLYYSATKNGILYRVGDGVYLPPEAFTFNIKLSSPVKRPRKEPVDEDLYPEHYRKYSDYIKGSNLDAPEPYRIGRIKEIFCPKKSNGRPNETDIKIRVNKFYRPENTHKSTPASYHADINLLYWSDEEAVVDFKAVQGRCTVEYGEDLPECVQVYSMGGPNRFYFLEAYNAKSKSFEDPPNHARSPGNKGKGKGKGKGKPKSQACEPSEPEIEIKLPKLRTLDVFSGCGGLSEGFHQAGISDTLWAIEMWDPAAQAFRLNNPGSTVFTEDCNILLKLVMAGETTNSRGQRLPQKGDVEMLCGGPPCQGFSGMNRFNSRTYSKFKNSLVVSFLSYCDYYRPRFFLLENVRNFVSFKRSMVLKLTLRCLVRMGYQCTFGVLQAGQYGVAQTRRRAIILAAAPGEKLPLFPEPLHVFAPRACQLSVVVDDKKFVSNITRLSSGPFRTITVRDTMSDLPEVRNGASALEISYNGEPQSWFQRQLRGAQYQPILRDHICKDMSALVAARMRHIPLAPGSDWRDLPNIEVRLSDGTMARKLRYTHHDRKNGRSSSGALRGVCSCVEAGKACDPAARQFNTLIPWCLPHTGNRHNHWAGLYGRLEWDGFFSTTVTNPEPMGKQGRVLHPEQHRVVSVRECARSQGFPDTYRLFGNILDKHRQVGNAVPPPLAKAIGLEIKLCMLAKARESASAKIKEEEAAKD

[9] = tested on: Streptococcus; test: GAS UMAA2166 growth inhibition – luminescence, BacTiterGlo, counter-screen for streptokinase expression inhibitor project, dose response (AID 1915); assay type: functional, organism-based;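 note: potency for reduction of bacterial viability or growth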
[10] = target: Ras and Rab interactor 1/Tyrosine-protein kinase ABL1 (Homo sapiens, UniProt P00519+Q13671); assay type: functional;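 note: biochemical TR-FRET dose-response test measuring inhibition of binding between Rin1 and Abl proteins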
Ras and Rab interactor 1/Tyrosine-protein kinase ABL1, sequence (P00519 whole entry): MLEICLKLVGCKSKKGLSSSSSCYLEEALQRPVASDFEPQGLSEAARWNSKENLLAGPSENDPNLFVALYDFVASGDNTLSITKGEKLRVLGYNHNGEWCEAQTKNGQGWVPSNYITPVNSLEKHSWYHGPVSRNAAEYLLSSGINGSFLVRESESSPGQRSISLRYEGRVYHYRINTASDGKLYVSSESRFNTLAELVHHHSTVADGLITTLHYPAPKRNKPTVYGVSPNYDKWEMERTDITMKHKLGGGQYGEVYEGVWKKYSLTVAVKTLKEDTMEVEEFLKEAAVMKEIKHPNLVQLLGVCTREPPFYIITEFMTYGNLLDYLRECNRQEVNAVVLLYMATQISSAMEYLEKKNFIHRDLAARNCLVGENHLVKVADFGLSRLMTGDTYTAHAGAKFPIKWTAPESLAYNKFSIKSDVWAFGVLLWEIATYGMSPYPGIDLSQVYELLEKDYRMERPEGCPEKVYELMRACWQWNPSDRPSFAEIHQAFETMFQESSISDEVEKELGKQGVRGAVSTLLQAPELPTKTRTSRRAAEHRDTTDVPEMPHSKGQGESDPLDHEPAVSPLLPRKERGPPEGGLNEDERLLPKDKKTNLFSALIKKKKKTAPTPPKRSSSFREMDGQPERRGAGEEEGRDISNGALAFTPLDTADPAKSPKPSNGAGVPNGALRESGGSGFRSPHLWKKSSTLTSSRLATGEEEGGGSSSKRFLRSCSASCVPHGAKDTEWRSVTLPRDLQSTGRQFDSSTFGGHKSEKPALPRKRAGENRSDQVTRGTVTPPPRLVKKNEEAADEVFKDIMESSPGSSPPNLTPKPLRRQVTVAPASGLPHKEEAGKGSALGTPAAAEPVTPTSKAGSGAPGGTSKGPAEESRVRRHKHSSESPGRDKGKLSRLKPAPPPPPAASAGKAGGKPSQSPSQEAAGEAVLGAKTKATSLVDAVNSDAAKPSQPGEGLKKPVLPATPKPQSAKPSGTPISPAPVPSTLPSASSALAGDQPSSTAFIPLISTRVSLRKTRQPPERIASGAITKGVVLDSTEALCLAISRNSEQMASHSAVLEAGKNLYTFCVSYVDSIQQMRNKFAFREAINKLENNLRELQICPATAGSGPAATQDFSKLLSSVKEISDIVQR
Ras and Rab interactor 1/Tyrosine-protein kinase ABL1, sequence (Q13671 whole entry): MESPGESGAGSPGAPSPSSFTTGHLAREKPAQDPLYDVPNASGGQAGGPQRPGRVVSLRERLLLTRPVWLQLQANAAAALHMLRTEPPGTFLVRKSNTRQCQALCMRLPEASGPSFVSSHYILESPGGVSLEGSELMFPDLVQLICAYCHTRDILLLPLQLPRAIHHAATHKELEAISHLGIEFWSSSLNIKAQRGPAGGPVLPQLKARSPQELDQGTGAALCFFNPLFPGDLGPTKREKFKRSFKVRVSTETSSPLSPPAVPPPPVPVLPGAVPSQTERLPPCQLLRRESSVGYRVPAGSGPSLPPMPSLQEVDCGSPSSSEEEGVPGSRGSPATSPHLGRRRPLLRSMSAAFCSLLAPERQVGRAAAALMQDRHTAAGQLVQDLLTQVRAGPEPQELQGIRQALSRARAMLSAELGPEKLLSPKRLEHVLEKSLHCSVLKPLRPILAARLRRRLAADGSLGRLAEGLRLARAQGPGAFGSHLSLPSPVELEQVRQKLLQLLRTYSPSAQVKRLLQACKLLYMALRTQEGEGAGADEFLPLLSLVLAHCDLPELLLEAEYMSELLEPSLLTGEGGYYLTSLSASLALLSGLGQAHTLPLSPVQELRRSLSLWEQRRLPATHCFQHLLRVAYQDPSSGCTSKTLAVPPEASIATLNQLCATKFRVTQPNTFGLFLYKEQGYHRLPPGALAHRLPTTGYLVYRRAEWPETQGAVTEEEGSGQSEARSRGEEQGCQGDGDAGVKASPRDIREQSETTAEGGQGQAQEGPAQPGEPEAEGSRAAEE

[11] = target: T4, Rac GTPase-activating protein 1 (Homo sapiens, UniProt Q9H0H5); test: blockers of MgcRacGAP-driven Rac1 GTP hydrolysis – biochemical, ADP Hunter fluorescence, primary and confirmatory, confirmation (AID 624330); assay type: functional
T4 sequence (Q9H0H5 whole entry): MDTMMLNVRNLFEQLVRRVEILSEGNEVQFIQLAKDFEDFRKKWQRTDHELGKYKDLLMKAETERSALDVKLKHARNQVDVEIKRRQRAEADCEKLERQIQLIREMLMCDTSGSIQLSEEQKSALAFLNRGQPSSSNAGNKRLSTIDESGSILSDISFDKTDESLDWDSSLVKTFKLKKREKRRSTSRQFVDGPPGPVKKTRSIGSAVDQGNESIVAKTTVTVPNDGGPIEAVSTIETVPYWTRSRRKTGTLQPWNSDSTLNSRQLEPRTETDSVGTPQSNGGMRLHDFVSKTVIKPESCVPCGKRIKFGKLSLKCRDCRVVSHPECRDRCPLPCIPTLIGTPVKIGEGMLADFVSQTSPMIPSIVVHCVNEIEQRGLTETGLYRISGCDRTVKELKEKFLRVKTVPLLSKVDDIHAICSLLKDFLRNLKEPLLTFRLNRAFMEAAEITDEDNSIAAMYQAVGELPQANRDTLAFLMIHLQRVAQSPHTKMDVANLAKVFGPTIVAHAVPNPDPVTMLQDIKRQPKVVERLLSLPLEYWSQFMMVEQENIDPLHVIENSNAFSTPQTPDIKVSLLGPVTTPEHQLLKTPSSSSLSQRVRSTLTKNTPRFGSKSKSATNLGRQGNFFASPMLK

[12] = viability loss in HeLa cells – cytotoxicity control for MgcRacGAP inhibitor project, dose response (AID 624300); assay type: functional
[13] = A549 cell cytotoxicity, dose response, cytotoxicity control, plate reader, cherry-pick, antagonist series (AID 743412); assay type: functional, cell-based
[14] = blockers of bursicon-stimulated LGR2 cAMP reporter – cell-based, HEK293, CRE-luciferase reporter, cherry pick, set 2, dose response (AID 743343); assay type: functional;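 note: transfected cells were stimulated with diluted bursicon conditioned medium after compound addition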
[15] = toxicity toward HepG2 liver cells – cell-based, plate reader, cherry-pick, antagonist series, cytotoxicity control, dose response (AID 743416); assay type: functional
[16] = target: T5, Hepatocyte nuclear factor 4-alpha (Homo sapiens, UniProt P41235); assay type: functional, cell-based;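 note: biochemical luminescence-based dose-response counterscreen measuring inhibition of HNF4 dimerization, run alongside a screen for blockers of ABHD5–perilipin-5 interaction; split luciferase complementation of HNF4 fusion proteins in cell lysate measuring dimerization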
T5 sequence (P41235 whole entry): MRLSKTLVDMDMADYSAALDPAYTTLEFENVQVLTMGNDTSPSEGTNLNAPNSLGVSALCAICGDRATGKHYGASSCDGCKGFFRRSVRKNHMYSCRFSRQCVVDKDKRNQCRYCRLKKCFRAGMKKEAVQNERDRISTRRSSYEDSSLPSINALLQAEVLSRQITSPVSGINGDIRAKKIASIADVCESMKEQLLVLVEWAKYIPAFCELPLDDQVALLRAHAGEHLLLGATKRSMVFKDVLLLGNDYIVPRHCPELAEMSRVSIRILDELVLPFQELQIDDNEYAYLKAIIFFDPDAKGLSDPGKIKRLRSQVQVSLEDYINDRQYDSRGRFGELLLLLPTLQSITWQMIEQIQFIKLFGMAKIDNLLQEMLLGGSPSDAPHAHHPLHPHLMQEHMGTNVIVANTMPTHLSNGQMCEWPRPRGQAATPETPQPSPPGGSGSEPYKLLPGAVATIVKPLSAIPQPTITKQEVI

[17] = target: T6, Heat shock factor protein 1 (Mus musculus, UniProt P38532); test: decrease of HSF1-responsive luciferase luminescence – cell-based, NIH3T3, dose retest, confirmation (AID 2382); assay type: functional;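 note: NIH3T3 fibroblasts with HSF1-driven luciferase reporter stressed by proteasome inhibitor MG132; luminescence from HSF1-driven luciferase expression after 8 hours of MG132 stress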
T6 sequence (P38532 whole entry): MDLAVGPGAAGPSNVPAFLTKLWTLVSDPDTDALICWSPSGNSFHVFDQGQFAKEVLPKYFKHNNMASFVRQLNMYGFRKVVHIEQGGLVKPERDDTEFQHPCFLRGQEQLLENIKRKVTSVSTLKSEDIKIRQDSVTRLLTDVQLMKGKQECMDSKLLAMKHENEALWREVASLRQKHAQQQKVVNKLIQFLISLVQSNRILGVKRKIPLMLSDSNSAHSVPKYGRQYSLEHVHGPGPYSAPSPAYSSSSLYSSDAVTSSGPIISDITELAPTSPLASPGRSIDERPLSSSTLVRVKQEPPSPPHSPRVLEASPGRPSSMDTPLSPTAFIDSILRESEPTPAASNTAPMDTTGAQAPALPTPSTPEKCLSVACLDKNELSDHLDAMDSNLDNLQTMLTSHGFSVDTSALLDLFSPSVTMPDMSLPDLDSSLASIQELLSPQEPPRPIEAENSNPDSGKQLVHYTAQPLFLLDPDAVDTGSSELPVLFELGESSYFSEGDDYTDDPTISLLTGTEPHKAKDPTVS

[18] = target: 72 kDa type IV collagenase (Homo sapiens, UniProt P08253); test: Dose Response validation of uHTS RPN11 inhibitor hits using a MMP-2 Fluorescence assay.; assay type: functional
72 kDa type IV collagenase, sequence (P08253 whole entry): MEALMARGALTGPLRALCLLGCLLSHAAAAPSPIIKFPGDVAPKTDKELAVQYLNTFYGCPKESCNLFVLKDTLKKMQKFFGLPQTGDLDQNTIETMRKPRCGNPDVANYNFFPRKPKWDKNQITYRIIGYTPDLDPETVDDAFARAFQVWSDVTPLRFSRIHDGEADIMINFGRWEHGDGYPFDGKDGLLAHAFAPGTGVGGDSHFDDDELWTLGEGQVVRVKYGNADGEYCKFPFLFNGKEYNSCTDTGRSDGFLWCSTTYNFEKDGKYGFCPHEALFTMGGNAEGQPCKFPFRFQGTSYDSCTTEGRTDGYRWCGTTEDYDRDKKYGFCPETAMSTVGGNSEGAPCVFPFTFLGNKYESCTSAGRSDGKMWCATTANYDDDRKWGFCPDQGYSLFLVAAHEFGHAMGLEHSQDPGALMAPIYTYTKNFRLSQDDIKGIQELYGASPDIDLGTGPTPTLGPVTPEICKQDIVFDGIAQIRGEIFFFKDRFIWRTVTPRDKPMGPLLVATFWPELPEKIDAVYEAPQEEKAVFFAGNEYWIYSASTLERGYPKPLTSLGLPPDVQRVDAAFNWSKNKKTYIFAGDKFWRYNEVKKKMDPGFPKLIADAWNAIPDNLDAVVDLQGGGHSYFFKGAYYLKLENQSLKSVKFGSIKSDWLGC

[19] = target: Dual specificity tyrosine-phosphorylation-regulated kinase 1A (Rattus norvegicus, UniProt Q63470); assay type: biochemical, Homo sapiens
[20] = target: 26S proteasome non-ATPase regulatory subunit 14 (Homo sapiens, UniProt O00487); test: inhibition of proteasome subunit RPN11 – biochemical, fluorescence polarization, uHTS hits, confirmation (AID 602368); assay type: functional
26S proteasome non-ATPase regulatory subunit 14, sequence (O00487 whole entry): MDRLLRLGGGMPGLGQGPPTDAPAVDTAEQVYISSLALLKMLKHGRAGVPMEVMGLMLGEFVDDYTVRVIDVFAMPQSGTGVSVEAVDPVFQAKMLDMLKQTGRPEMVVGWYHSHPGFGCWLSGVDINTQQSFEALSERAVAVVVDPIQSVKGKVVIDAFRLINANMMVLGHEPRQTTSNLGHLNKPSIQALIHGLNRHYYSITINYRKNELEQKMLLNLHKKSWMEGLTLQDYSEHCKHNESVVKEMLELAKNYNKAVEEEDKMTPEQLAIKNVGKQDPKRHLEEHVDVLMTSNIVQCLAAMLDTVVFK

[21] = target: Prothrombin (Bos taurus, UniProt P00735); test: thrombin protease inhibitors – biochemical, fluorescence polarization, uHTS hits, dose response (AID 602369); assay type: functional
[22] = target: T7, DNA repair protein RAD52 homolog (Homo sapiens, UniProt P43351); assay type: functional, biochemical
T7 sequence (P43351 whole entry): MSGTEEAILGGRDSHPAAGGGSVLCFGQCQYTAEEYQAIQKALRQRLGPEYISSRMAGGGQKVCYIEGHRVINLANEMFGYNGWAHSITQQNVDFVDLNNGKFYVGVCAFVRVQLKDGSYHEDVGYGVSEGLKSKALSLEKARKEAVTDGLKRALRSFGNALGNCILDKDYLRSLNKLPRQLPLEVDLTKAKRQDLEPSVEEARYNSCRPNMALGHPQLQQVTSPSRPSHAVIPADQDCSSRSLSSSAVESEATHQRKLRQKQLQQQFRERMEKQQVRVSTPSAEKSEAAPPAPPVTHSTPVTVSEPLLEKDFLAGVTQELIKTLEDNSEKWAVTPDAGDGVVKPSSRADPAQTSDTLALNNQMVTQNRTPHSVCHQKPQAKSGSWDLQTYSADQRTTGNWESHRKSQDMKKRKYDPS

SMILES: O=C(Nc1cccc([N+](=O)[O-])c1)c1cc(S(=O)(=O)N2CCOCC2)cs1
- AC50 [1]: 21.8 µM (active)

SMILES: Cc1cc(C(=O)CSc2nnnn2-c2ccccc2)c(C)n1CCc1ccccc1
- EC50 [2]: 3.4 µM (active)
- IC50 [3]: 6.28 µM (active)
- IC50 [4]: > 29.9 µM (inactive)
- EC50 [5]: > 29.9 µM (inactive)

SMILES: COc1ccc(-c2nn(-c3ccccc3)cc2/C=C2/SC(=S)N(CCC(=O)O)C2=O)cc1
- EC50 [6]: 2.14 µM (active)
- EC50 [7]: > 150 µM (not active)
- IC50 [8]: 5.06 µM (active)
- EC50 [9]: 4.88 µM (active)

SMILES: COCCN(CCOC)C(=O)CSc1ccc(S(=O)(=O)N2CCN(C)CC2)cn1
- IC50 [10]: 20.5 µM (inactive)

SMILES: Oc1ccc(-c2csc(-c3cccnc3)n2)c(O)c1
- IC50 [11]: 30.9 µM (active)
- CC50 [12]: 100 µM (active)
- AC50 [13]: 23.6 µM (active)
- AC50 [14]: 44.3 µM (active)
- AC50 [15]: 42.4 µM (active)

SMILES: CC(C)(C)NC(=O)C(c1ccccc1)n1c(=O)c(-c2ccco2)nc2ccccc21 (stereo not given)
- IC50 [16]: 1.4 µM (active)

SMILES: C/C(=N\CCc1ccccc1)C1=C(O)SCC1=O
- EC50 [2]: 1.55 µM (active)
- IC50 [3]: 9.57 µM (active)
- IC50 [4]: > 29.9 µM (inactive)
- EC50 [17]: > 195 µM (not active)
- EC50 [5]: > 29.9 µM (inactive)

SMILES: COc1cc(/C=C2\SC(N)=NC2=O)cc(Cl)c1O
- IC50 [18]: > 100 µM (inactive)
- IC50 [11]: 43.6 µM (active)
- AC50 [19]: 18.6 µM (active)
- IC50 [20]: 26.8 µM (active)
- IC50 [21]: 32.8 µM (active)

SMILES: COc1ccc(NC(=O)C(c2ccc(C#N)cc2)n2c(=O)c(-c3ccco3)nc3ccccc32)cc1 (stereo not given)
- IC50 [16]: 13.5 µM (inactive)

SMILES: CCOc1ccccc1N(C(=O)c1snc(C(N)=O)c1N)C(C(=O)NCC1CCCO1)c1ccc2ncccc2c1 (stereo not given)
- IC50 [10]: 25.1 µM (inactive)

SMILES: CC(=O)Nc1cc(-c2ccc(N3CCN(C)CC3)cc2)cn2c(-c3cccc(C(C)=O)c3)cnc12
- AC50 [1]: 14.8 µM (active)
- AC50 [22]: 4.9 µM (active)

SMILES: COC(=O)CCSCc1cn2cc(Cl)ccc2n1
- IC50 [10]: 8.83 µM (active)

SMILES: COc1cccc(C(=O)N[C@H](C(=O)N2CCC[C@H]2C(=O)NCCc2ccccc2Cl)C(C)C)c1
- EC50 [2]: 1.08 µM (active)
- IC50 [3]: 2.22 µM (active)
- IC50 [4]: > 29.9 µM (inactive)
- EC50 [5]: > 29.9 µM (inactive)
